Reference: US12516056B2, “Compounds for inhibition of janus kinase 1” (MANKIND PHARMA LTD., priority 2019, dated 2026)

Tests used:
Recombinant JAK3 = target: T1, Recombinant JAK3 (Homo sapiens, UniProt P52333); assay: JAK biochemical assay (LANCE Ultra TR-FRET), JAK3; details: recombinant JAK3, TR-FRET; read-out: Biochemical Assay (μM) JAK3
T1 construct: purchased Carna Biosciences
T1 sequence (P52333 1-1124): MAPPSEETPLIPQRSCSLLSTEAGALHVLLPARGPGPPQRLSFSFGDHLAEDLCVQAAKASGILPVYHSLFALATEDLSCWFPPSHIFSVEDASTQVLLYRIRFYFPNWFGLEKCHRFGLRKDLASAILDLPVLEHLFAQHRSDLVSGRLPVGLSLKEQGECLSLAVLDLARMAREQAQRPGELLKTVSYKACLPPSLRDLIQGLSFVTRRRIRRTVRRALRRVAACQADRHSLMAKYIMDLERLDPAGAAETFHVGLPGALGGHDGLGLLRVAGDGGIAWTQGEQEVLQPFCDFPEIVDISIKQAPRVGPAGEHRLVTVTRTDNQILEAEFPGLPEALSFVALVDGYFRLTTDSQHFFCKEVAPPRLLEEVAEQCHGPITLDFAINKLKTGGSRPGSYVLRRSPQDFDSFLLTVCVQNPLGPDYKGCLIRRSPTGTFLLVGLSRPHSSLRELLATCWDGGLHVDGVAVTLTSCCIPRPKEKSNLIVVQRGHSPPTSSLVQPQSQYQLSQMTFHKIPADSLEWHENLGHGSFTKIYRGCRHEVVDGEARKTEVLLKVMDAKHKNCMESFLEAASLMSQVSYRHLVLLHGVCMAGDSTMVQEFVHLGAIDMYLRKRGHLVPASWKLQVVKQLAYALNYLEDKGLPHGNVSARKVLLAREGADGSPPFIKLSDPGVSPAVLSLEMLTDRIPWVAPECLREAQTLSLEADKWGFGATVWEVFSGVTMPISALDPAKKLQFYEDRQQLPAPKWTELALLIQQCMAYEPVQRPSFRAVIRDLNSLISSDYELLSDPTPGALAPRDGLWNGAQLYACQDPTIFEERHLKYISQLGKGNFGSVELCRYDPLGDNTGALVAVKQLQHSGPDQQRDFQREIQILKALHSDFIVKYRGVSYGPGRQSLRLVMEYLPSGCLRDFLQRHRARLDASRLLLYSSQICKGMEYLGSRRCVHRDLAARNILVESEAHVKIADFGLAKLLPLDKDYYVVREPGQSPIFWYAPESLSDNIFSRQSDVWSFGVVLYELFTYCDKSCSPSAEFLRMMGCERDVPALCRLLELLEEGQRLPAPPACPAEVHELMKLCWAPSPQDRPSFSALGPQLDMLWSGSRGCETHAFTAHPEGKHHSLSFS
Protocol: (§1) Recombinant JAK1, JAK2, JAK3 and TYK2 (Carna Biosciences) were used to develop biochemical assays in 50 mM HEPES pH 7.5, 1 mM EGTA, 10 mM MgCl2, 2 mM DTT and 0.01% Tween-20. […] The intensity of the light emission is proportional to the level of ULight substrate phosphorylation. Compounds which interfere with JAK enzyme activity show a lesser substrate phosphorylation and values are projected in terms of % inhibition in comparison to vehicle control.

Recombinant TYK2 = target: T2, Recombinant TYK2 (Homo sapiens, UniProt P29597); assay: JAK biochemical assay (LANCE Ultra TR-FRET), TYK2; details: recombinant TYK2, TR-FRET; read-out: Biochemical Assay (μM) TYK2
T2 construct: purchased Carna Biosciences
Protocol: as §1

Recombinant JAK1 = target: T3, Recombinant JAK1 (Homo sapiens, UniProt P23458); assay: JAK biochemical assay (LANCE Ultra TR-FRET), JAK1; details: recombinant JAK1, TR-FRET; read-out: Biochemical Assay (μM) JAK1
T3 construct: purchased Carna Biosciences
Protocol: as §1

Recombinant JAK2 = target: T4, Recombinant JAK2 (Homo sapiens, UniProt O60674); assay: JAK biochemical assay (LANCE Ultra TR-FRET), JAK2; details: recombinant JAK2, TR-FRET; read-out: Biochemical Assay (μM) JAK2
T4 construct: purchased Carna Biosciences
Protocol: as §1

T2 sequence (P29597 whole entry): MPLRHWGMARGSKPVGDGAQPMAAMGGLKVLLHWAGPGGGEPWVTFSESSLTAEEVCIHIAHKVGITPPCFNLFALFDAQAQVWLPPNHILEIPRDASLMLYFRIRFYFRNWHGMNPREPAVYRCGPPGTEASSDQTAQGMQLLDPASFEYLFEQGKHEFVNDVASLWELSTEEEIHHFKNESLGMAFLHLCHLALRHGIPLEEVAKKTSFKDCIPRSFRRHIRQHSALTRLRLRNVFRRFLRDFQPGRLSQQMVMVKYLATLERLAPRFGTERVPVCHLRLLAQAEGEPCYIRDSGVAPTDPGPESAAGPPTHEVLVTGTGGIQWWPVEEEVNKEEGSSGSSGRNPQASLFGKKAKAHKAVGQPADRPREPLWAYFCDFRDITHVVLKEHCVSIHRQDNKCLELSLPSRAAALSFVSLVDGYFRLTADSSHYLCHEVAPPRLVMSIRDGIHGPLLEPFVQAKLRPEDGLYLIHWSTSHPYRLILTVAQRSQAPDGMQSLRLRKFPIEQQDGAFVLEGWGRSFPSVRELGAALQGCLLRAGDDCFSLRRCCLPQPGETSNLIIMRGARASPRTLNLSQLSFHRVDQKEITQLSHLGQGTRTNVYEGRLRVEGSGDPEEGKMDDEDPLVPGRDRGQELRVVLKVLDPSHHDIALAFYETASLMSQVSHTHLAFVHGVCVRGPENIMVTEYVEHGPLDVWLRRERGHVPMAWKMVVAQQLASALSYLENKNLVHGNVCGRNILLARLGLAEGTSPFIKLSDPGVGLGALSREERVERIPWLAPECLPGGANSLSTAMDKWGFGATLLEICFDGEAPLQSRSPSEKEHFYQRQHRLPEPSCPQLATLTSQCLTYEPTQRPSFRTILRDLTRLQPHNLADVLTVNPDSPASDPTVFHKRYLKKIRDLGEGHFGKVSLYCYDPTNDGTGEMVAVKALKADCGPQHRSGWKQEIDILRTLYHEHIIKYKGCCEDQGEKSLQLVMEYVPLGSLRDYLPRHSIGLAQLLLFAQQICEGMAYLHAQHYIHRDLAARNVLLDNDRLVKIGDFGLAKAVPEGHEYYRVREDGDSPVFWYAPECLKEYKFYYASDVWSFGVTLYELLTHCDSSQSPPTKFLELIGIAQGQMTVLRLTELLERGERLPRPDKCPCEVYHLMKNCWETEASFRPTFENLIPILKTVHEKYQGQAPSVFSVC
T4 sequence (O60674 whole entry): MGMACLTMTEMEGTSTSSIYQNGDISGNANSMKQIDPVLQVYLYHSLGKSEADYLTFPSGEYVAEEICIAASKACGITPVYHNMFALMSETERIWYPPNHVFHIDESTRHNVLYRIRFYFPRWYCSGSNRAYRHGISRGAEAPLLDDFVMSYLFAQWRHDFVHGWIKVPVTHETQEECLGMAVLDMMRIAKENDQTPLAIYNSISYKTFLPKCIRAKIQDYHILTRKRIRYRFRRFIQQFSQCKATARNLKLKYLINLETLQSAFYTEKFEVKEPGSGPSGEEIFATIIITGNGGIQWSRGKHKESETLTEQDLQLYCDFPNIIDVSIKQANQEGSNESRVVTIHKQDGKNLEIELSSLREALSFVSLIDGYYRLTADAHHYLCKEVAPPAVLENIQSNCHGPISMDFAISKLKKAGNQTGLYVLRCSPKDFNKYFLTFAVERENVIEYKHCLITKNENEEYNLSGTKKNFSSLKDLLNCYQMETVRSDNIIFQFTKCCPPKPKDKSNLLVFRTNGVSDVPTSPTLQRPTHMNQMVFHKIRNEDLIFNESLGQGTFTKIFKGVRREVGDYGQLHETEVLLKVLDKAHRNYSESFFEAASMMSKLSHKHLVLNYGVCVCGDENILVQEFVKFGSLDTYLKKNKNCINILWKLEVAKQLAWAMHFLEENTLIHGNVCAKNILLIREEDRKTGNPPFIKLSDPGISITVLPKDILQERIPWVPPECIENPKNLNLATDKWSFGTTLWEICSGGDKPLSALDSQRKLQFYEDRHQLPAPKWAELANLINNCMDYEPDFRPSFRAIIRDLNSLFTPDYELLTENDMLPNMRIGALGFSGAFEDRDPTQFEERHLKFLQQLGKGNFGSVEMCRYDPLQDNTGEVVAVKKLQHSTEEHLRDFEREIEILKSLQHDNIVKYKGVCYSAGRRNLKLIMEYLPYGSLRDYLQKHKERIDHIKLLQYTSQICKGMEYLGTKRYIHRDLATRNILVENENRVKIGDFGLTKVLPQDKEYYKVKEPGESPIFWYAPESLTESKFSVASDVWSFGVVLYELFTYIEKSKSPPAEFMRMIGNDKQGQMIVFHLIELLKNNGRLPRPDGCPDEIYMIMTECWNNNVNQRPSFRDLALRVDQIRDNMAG
T3 sequence (P23458 whole entry): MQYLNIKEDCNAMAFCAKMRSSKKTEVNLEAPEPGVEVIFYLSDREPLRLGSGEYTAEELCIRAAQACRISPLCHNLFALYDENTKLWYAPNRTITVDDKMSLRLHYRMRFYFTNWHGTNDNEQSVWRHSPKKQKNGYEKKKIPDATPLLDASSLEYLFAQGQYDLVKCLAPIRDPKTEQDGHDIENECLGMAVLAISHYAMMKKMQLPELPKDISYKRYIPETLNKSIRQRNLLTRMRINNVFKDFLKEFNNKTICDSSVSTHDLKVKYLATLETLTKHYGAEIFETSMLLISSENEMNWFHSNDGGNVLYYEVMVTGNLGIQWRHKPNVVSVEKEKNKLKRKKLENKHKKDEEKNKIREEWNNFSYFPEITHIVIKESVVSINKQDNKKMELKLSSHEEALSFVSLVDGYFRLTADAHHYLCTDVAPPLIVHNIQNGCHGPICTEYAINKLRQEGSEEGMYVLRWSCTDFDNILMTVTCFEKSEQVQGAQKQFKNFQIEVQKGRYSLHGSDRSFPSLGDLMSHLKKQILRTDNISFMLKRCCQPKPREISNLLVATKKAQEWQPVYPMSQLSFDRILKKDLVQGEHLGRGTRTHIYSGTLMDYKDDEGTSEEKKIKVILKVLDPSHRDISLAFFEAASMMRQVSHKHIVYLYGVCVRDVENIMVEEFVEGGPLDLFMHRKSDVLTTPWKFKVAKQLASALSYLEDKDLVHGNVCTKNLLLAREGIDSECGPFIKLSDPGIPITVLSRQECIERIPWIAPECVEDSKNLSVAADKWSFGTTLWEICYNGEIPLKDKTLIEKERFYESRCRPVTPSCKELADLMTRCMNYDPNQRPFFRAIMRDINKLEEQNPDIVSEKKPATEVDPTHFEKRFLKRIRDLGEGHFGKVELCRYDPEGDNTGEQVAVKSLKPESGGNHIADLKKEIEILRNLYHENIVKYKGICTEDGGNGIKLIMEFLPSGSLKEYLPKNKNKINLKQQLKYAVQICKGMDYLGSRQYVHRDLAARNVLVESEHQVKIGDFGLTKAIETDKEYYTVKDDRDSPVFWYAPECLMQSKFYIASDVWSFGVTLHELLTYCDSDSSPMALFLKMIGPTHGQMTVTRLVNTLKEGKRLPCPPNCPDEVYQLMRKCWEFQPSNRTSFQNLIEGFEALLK

Row | SMILES | IC50 (Recombinant JAK3) | IC50 (Recombinant TYK2) | IC50 (Recombinant JAK1) | IC50 (Recombinant JAK2)
1 | CCn1c(=O)[nH]c2nccc(-c3cnn(C(=O)NCC(F)(F)F)c3)c21 [Example 1042, 4-(1-ethyl-2,3-dihydro-2-oxo-1H-imidazo[4,5-b]pyridin-7-yl)-N-(2,2,2-trifluoroethyl)-1H-pyrazole-1-carboxamide] | > 10 µM | > 10 µM | > 10 µM | > 1 µM
2 | FC(F)(F)C(CN1CCOCC1)c1ccc(-n2cc(-c3ccnc4[nH]cnc34)cn2)nc1 (stereo not drawn) [Example 1206, 7-(1-(5-(1,1,1-trifluoro-3-morpholinopropan-2-yl)pyridin-2-yl)-1H-pyrazol-4-yl)-3H-imidazo[4,5-b]pyridine] | > 0.5 µM | > 1 µM | > 0.1 µM | > 0.1 µM
3 | N#CC(c1ccc(-n2cc(-c3ccnc4[nH]cnc34)cn2)nc1)C1CC1 (stereo not drawn) [Example 1110, 2-(6-(4-(3H-imidazo[4,5-b]pyridin-7-yl)-1H-pyrazol-1-yl)pyridin-3-yl)-2-cyclopropylacetonitrile] | > 0.1 µM | > 1 µM | > 0.1 µM | > 0.5 µM
4 | N#CCNC(=O)c1cnc(-n2cc(-c3ccnc4[nH]cnc34)cn2)nc1 [Example 1093, 2-(4-(3H-imidazo[4,5-b]pyridin-7-yl)-1H-pyrazol-1-yl)-N-(cyanomethyl)pyrimidine-5-carboxamide] | < 0.5 µM | > 10 µM | > 0.5 µM | < 0.5 µM
5 | CS(=O)(=O)CCC(F)c1ccc(-n2cc(-c3ccnc4[nH]cnc34)cn2)nc1 (stereo not drawn) [Example 1162, 7-(1-(5-(1-fluoro-3-(methylsulfonyl)propyl)pyridin-2-yl)-1H-pyrazol-4-yl)-3H-imidazo[4,5-b]pyridine] | > 0.5 µM | > 1 µM | > 0.5 µM | > 0.5 µM
6 | OC(c1ccc(-n2cc(-c3ccnc4[nH]cnc34)cn2)nc1)C1CC1 (stereo not drawn) [Example 1159, (6-(4-(3H-imidazo[4,5-b]pyridin-7-yl)-1H-pyrazol-1-yl)pyridin-3-yl)(cyclopropyl)methanol] | < 0.1 µM | > 1 µM | < 0.1 µM | > 0.1 µM
7 | CS(=O)(=O)CC(Cc1ccc(-n2cc(-c3ccnc4[nH]cnc34)cn2)nc1)C(F)(F)F (stereo not drawn) [Example 1194, 7-(1-(5-(3,3,3-trifluoro-2-((methylsulfonyl)methyl)propyl)pyridin-2-yl)-1H-pyrazol-4-yl)-3H-imidazo[4,5-b]pyridine] | > 0.5 µM | > 1 µM | > 0.5 µM | > 0.5 µM
8 | CN1CCC(C(O)c2ccc(-n3cc(-c4ccnc5[nH]cnc45)cn3)nc2)CC1 (stereo not drawn) [Example 1165, (6-(4-(3H-imidazo[4,5-b]pyridin-7-yl)-1H-pyrazol-1-yl)pyridin-3-yl)(1-methylpiperidin-4-yl)methanol] | > 1 µM | > 1 µM | > 1 µM | > 1 µM
9 | O=C(NCC(F)(F)F)n1cc(-c2ccnc3[nH]c(C4CC4)nc23)cn1 [Example 1096, 4-(2-cyclopropyl-3H-imidazo[4,5-b]pyridin-7-yl)-N-(2,2,2-trifluoroethyl)-1H-pyrazole-1-carboxamide] | > 1 µM | > 10 µM | > 10 µM | > 1 µM
10 | Cc1cc(S(C)(=O)=O)ccc1NC(=O)N1CCN(c2ccnc3[nH]c(=O)[nH]c23)CC1 [Example 1024, 4-(2,3-dihydro-2-oxo-1H-imidazo[4,5-b]pyridin-7-yl)-N-(2-methyl-4-(methylsulfonyl)phenyl)piperazine-1-carboxamide] | > 1 µM | > 1 µM | > 1 µM | > 1 µM
11 | CS(=O)(=O)N1CCC(C(O)c2ccc(-n3cc(-c4ccnc5[nH]cnc45)cn3)nc2)CC1 (stereo not drawn) [Example 1164, (6-(4-(3H-imidazo[4,5-b]pyridin-7-yl)-1H-pyrazol-1-yl)pyridin-3-yl)(1-(methylsulfonyl)piperidin-4-yl)methanol] | > 1 µM | > 1 µM | > 1 µM | > 1 µM
12 | CS(=O)(=O)CCC(c1ccc(-n2cc(-c3ccnc4[nH]cnc34)cn2)nc1)C1COC1 (stereo not drawn) [Example 1160, 7-(1-(5-(3-(methylsulfonyl)-1-(oxetan-3-yl)propyl)pyridin-2-yl)-1H-pyrazol-4-yl)-3H-imidazo[4,5-b]pyridine] | > 0.5 µM | > 1 µM | > 0.1 µM | > 0.5 µM
13 | N#CC1CN(Cc2ccc(-n3cc(-c4ccnc5[nH]cnc45)cn3)nc2)C1 [Example 1087, 1-((6-(4-(3H-imidazo[4,5-b]pyridin-7-yl)-1H-pyrazol-1-yl)pyridin-3-yl)methyl)azetidine-3-carbonitrile] | > 1 µM | > 10 µM | > 0.5 µM | > 1 µM
14 | O=S(=O)(CC1CC1)CC(c1ccc(-n2cc(-c3ccnc4[nH]cnc34)cn2)nc1)C(F)(F)F (stereo not drawn) [Example 1205, 7-(1-(5-(3-(cyclopropylmethylsulfonyl)-1,1,1-trifluoropropan-2-yl)pyridin-2-yl)-1H-pyrazol-4-yl)-3H-imidazo[4,5-b]pyridine] | > 0.1 µM | > 1 µM | < 0.1 µM | > 0.1 µM
15 | O=C(NCC1CCCC1)N1CCN(c2ccnc3[nH]c(=O)[nH]c23)CC1 [Example 1017, N-(cyclopentylmethyl)-4-(2,3-dihydro-2-oxo-1H-imidazo[4,5-b]pyridin-7-yl)piperazine-1-carboxamide] | > 10 µM | > 10 µM | > 1 µM | > 1 µM
16 | O=C(N1CCN(c2ccnc3[nH]c(=O)[nH]c23)CC1)N1CCS(=O)(=O)CC1 [Example 1018, 7-(4-(1,1-dioxidothiomorpholine-4-carbonyl)piperazin-1-yl)-1,3-dihydro-2H-imidazo[4,5-b]pyridin-2-one] | > 10 µM | > 10 µM | > 10 µM | > 10 µM
17 | N#CC(NC(=O)n1cc(-c2ccnc3[nH]c(=O)[nH]c23)cn1)c1ccccc1 (stereo not drawn) [Example 1063, N-(cyano(phenyl)methyl)-4-(2,3-dihydro-2-oxo-1H-imidazo[4,5-b]pyridin-7-yl)-1H-pyrazole-1-carboxamide] | > 0.5 µM | < 0.5 µM | > 0.5 µM | < 0.5 µM
18 | COCCC(c1ccc(-n2cc(-c3ccnc4[nH]cnc34)cn2)nc1)C(F)(F)F (stereo not drawn) [Example 1155, 7-(1-(5-(1,1,1-trifluoro-4-methoxybutan-2-yl)pyridin-2-yl)-1H-pyrazol-4-yl)-3H-imidazo[4,5-b]pyridine] | > 0.1 µM | > 1 µM | > 0.1 µM | > 0.5 µM
19 | Cn1c(=O)[nH]c2nccc(-c3cnn(C(=O)NCC(F)(F)F)c3)c21 [Example 1029, N-(2,2,2-trifluoroethyl)-4-(2,3-dihydro-1-methyl-2-oxo-1H-imidazo[4,5-b]pyridin-7-yl)-1H-pyrazole-1-carboxamide] | > 10 µM | > 10 µM | > 10 µM | > 10 µM
20 | CC(C)(O)CC(c1ccc(-n2cc(-c3ccnc4[nH]cnc34)cn2)nc1)C(F)(F)F (stereo not drawn) [Example 1193, 4-(6-(4-(3H-imidazo[4,5-b]pyridin-7-yl)-1H-pyrazol-1-yl)pyridin-3-yl)-5,5,5-trifluoro-2-methylpentan-2-ol] | > 0.1 µM | > 1 µM | > 0.1 µM | > 0.5 µM
21 | O=C(NCC(F)(F)F)Nc1ncc(-c2ccnc3[nH]c(=O)[nH]c23)cn1 [Example 1004, 1-(2,2,2-trifluoroethyl)-3-(5-(2,3-dihydro-2-oxo-1H-imidazo[4,5-b]pyridin-7-yl)pyrimidin-2-yl)urea] | > 10 µM | > 10 µM | > 10 µM | > 10 µM
